# Laboratory results from patent USRE34630E, “Substituted isoquinolines and methods of using same” (Euroceltique, S.A., priority 1992, dated 1994).
# Like-named read-outs stand apart in the source and are kept apart here.
# Key:
# [1] = system: rabbit platelets (PAF-induced serotonin release); assay: PAF-induced release of tritiated serotonin from rabbit platelets; format: cell-based, rabbit (New Zealand White); settings: Oryctolagus cuniculus, Platelet; for inhibition at 30 µM: read-out: Platelet Serotonin Release % Inhibition at 30 uM, 30 uM; for IC50: read-out: Platelet Serotonin Release I50
# Method: (§1) The cellular responses studied include (1) PAF-induced release of preloaded, radiolabeled serotonin from rabbit platelets, (2) PAF-induced degranulation (release of myeloperoxidase) from purified human nuetrophils and (3) PAF-induced adhesion of human neutrophils to latex beads. Each putative antagonist was tested at 30 μM for its effect on each response. Selected compounds were tested in a concentration-response fashion.
# Blood is collected from the central ear artery of New Zealand White rabbits into a 1:7 volume of acid citrate dextrose. The blood is centrifuged at 1100 rpm for 20 minutes. The isolated platelet rich plasma (PRP) is then incubated at 37° C. for 30 minutes with 1 μCi^3 H-serotonin binoxalate per ml PRP. Labeled platelets are pelleted by centrifugation at 2800 rpm for 20 minutes. The platelets are then washed in Tyrodes gel buffer without calcium in the presence of 0.1 mM EGTA and again pelleted at 2800 rpm for 20 minutes. This wash process is repeated. The washed platelet pellet is resuspended in Tyrodes gel buffer without calcium and adjusted to a concentration of 1.25×10^9 platelets/ml, as determined from a standard curve of absorbance at 530 num vs platelet concentration.
# Polystyrene reaction tubes containing various dilutions of PAF (for standard curve determination) or a single concentration of PAF with and without the subject antagonist in a 0.45 ml volume of Tyrodes gel buffer with calcium each receive a 0.05 ml aliquot of the paltelet preparation. After a 90 second incubation period at room temperature, the reaction is stopped by the addition of 0.02 ml of 9.25 % formaldehyde. The platelets are then pelleted by centrifugation at 2800 rpm for 15 minutes at 4° C.
# Aliquots (0.1 ml) of the supernatants are added to 3 ml liquid scintillation fluid in polypropylene vials. The samples are then counted for radioactivity in a liquid scintillation counter. The platelets in one set of reaction tubes containing only buffer and labeled platelets are lysed using 0.01 ml 10% Triton TX, and the total reactivity is determined by liquid scintillation counting. The determined dpm represent the total radioactivity in the labelled platelets. The results for each determination are reported as the percentage release of the total radioactivity in the sample. The extent of PAF antagonist activity is expressed as the percent inhibition of ^3 H-serotonin release compared to that amount released by PAF alone.
# [2] = system: human neutrophils (PAF-induced degranulation); assay: PAF-induced degranulation (myeloperoxidase release) of human neutrophils; format: cell-based; settings: Neutrophil
# Method: as §1
# Neutrophils are isolated from human venous blood via a two-step sedimentation procedure, and contaminating erythrocytes are selectively lysed. The neutrophils were preincubated in 0.25% Hanks buffer containing bovine serum albumin (BSA) with 5 ug Cytochalasin B/ ml cells for 5 minutes at 37° C. Neutrophils (4×10^6) are added to stimuli (PAF or buffer control) in the presence and absence of antagonist in Krebs-Ringer buffer to a final volume of 1.0 ml, and incubated at 37° C. for appropriate periods of time. At the end of the reaction period the neutrophils are pelleted by centrifugation at 3000 rpm for 5 minutes at 4° C.
# Aliquots (0.2 ml) of the supernatants are added to polysyrene tubes to which are added the following: 0.6 ml)>25% Hanks BSA, 0.5 ml MPO buffer (0.2 M NaPO4, pH 6.2) and to start the color reaction 0.2 ml of a 1:1 v/v 0.05% H2 O2 :1.25 mg/ml dimethoxybenzidine (DMB). The reaction is allowed to run at room temperature for 15 minutes and is stopped by the addition of 0.05 ml 2% sodium azide. The developed color is quantitated in a spectrophotometer at 460 nm. The amount of myeloperoxidase (MPO) released by PAF stimulation can thus be determined. In order to determine the total amount of MPO in the cells an unstimulated control tube of neutrophils is lysed using 0.01 ml 10% Triton TX and the total MPO is determined via the color reaction and spectrophotometer reading. The activity of a given concentration of PAF is expressed as the percentage of the total MPO released. The activity of antagonists at a given concentration is expressed as a percentage of inhibition of PAF-induced MPO released at a single concentration of PAF.
# [3] = system: human neutrophils (PAF-induced bead adhesion); assay: PAF-induced adhesion of human neutrophils to latex beads; format: cell-based; settings: Neutrophil, albumin-coated latex beads
# Method: as §1
# Latex bead suspension (0.6 ml; 10% aqueous suspension; particle diameter=1u) is pipeted into a 1.5 ml eppendorf centrifuge tube. The beads are pelleted by centrifugation, the supernatant is discarded and the beads are washed 2 times with 1 ml 0.9% saline. To the pelleted beads is added 0.5 ml 20 mg/ml human serum albunim (HSA) in Krebs-Ringer buffer.
# Allow bed-albumin mixture to sit at room temperature for 10 minutes, centrifuge for 1 minute and remove the supernatant, and wash albumin-coated beads 3 times with saline. Resuspend the beads in 1 ml of Krebs-Ringer.
# Human neutrophils are prepared as described for the neutrophil degranulation assay and 10^7 cells are added to 0.3 ml of Krebs-Ringerin the presence and absence of PAF and putative antagonist and are incubated at 37° for an appropriate period of time.
# The albumin-coated beads are then added in 0.05 ml to give a final bead concentration of 1% v/v, resulting in a bead to neutrophil ratio of 100:1. The tubes containing cells and beads are then placed in an agitating water bath at 37° C. and 120 oscillation per minute for 10 minutes. The reaction is stopped by adding an equal volume of 2.5% glutaraldehyde in saline. The reaction tubes are allowed to stand at room temperature for 30 minutes. The cells are then washed 3 times (with centrifugation at 1000 rpm for 5 minutes) with saline to remove the unadhered latex beads and resuspended in 0.3 ml saline.
# Wet mounts are prepared and adherence is examined by light microscopy at 400x. […] Activity of the antagonists is expressed as the percent inhibition of PAF-induced adherence.
# [4] = system: PAF-induced edema; assay: PAF-induced edema formation in rabbit skin; format: in vivo; settings: for % Inhibition of PAF-induced edema: local intradermal, with PAF+PGE2, 30 minutes
# Method: PAF (10^-9 moles/site) was mixed with […] (a vasodilator, 3×10^-10 moles/site) and injected intradermally in 0.1 ml volumes with six replicates per sample. After 30 minutes a cardiac blood sample was taken and the plasma perpared. The animal was then killed, the dorsal skin removed and injection sites were punched out. Skin samples were counted in a counter together with plasma samples and the amount of plasma leakage in skin sites expressed in terms of 1 μl plasma by comparing the skin radioactivity with that in 1 μl plasma.
# [5] = Stability of free base solution on exposure to air (tlc); format: physicochemical; settings: 1 h exposure to air
# Method: 1-(3,4-Dimethoxybenzyl)-6-methyl-3,4-dihydroisoquinoline (D2). Amide D1 (24.7 g, 0.079 mol) and 850 ml of tetrachloroethane was distilled to remove 50 ml of solvent. This solution was added to a solution of 90 g (0.63 mol) of P2 O5 in HMDSO which was heated at 115°. The reaction mixture was heated at 155°-170° for 5 h at which time the reaction appeared complete by tlc. To the cooled reaction mixture was added over 1 h a solution of 100 g of NaOH in 1 l of water under nitrogen with stirring. The organic layer was separated and filtered through a pad of MgSO4. One-half of the tetrachloroethane solution was partially evaporated and […] hydrochloric acid (25 ml) wa added. The resulting mixture was evaporated to dryness. The residue was twice treated with EtOH (100 ml) and evaporated to dryness. The residue was washed with two 100 ml portions of ether and taken up to 100 ml of acetone and evaporated to give a foam. The foam was washed with ethyl acetate (60 ml) and dissolved in 75 ml of i-PrOH, treated with charcoal, filtered and boiled down to 50 ml. The solution deposited 3.4 g of 1-(3,4-dimethoxybenzyl)-6-methyl-3, 4-dihydroisoquinoline hydrochloride after storing overnight at 4°. Dilution of the mother liquor with ethyl acetate and ether gave another 2.9 g to raise the yield to 6.3 g (48% based on one-half of crude product purified).
Structure (SMILES),"inhibition at 30 µM ([1]; PAF-induced, rabbit platelets) [%]",inhibition at 30 µM [2] [%],inhibition at 30 µM [3] [%],"IC50 ([1]; PAF-induced, rabbit platelets) [µM]",other results
COc1ccc(CCC2=NCCc3cc(C)ccc32)cc1OC [Compound E2],92,70,2,–,–
"COc1ccc(CCc2nccc3cc(C)ccc23)cc1OC [Compound E3, 1-[2-(3,4-Dimethoxyphenyl)ethyl]-6-methylisoquinoline]",90,77,9,–,–
"COc1cc(C2=NCCc3cc(C)ccc32)cc(OC)c1OC [Compound F2, 1-(3,4,5-Trimethoxyphenyl)-6-methyl-3,4-dihydroisoquinoline]",48,27,26,–,–
"COc1ccc(-c2nccc3ccccc23)cc1OC [Compound A3, 1-(3,4-dimethoxyphenyl) isoquinoline]",80,38,2,–,–
"CCCCC[C@H](O)/C=C/[C@H]1[C@H](O)CC(=O)[C@@H]1C/C=C\CCCC(=O)O [PGE2, reference compound]",–,–,–,–,"Edema formation in rabbit skin (response to agent alone) ([4]; intradermal, alone, compared with saline): not much greater than seen with saline"
"COc1ccc(C2=NCCc3cc(OCc4ccccc4)ccc32)cc1OC [Compound I2, 1-(3,4-Dimethoxyphenyl)-6-benzyloxy-3,4-dihydroisoquinoline]",100,72,10,12.5,–
"COc1ccc(-c2nccc3cc(C)ccc23)cc1OC [Compound C3, 1-(3,4-dimethoxyphenyl)-6-methylisoquinoline]",100,78,30,–,"IC50 ([2]; Homo sapiens, read-out: PAF-Induced Neutrophil Degranulation I50): > 30 µM"
"COc1ccc(Cc2nccc3cc(C)ccc23)cc1OC [Compound D3, 1-(3,4-Dimethoxybenzyl)-6-methylisoquinoline]",100,57,100,25,–
"COc1cc(-c2nccc3cc(C)ccc23)cc(OC)c1OC [Compound F3, 1-(3,4,5-Trimethoxyphenyl)-6-methylisoquinoline]",89,60,87,–,–
"COc1ccc(C2=NCCc3ccccc32)cc1OC [Compound A2, 1-(3,4-Dimethoxyphenyl)-3,4-dihydroisoquinoline]",48,7,2,–,–
COc1ccc(C2=NCCc3cc(OCCN(C)C)ccc32)cc1OC [Compound 12b],0,10,2,–,–
"COc1ccc(C2=NCCc3cc(O)ccc32)cc1OC [Compound 12a, 1-(3,4-Dimethoxyphenyl)-6-hydroxy-3,4-dihydroisoquinoline]",12,40,90,–,–
"COc1ccc(C2=NCCc3cc(C)ccc32)cc1OC [Compound C2, 1-(3,4-Dimethoxyphenyl)-6-methyl-3,4-dihydroisoquinoline]",–,16,10,–,inhibition at 30 µM ([1]; lot 2): 0%; inhibition at 30 µM ([1]; lots 1 & 3): 38%
"COc1ccc(CC2=NCCc3cc(C)ccc32)cc1OC [Compound D2, 1-(3,4-Dimethoxybenzyl)-6-methyl-3,4-dihydroisoquinoline]",70,17,23,5.6,Decomposition of free base in solution by tlc [5]: extensive decomposition
"COc1ccc(C2=NCCc3cc(C)ccc32)cc1 [Compound H2, 1-(4-Methoxyphenyl)-6-methyl-3,4-dihydroisoquinoline]",100,25,3,18,–
"COc1cccc(C2=NCCc3cc(C)ccc32)c1 [Compound G2, 1-(3-Methoxyphenyl)-6-methyl-3,4-dihydroisoquinoline]",100,14,42,20,–
"COc1ccc(Cc2nccc3cc(OCc4ccccn4)ccc23)cc1OC [Compound J3a, 1-(3,4-Dimethoxybenzyl)-6-(2-pyridylmethyloxy) isoquinoline]",88,70,12,0.8,% Inhibition of PAF-induced edema ([4]; 10^-7 moles/site): 62%; % Inhibition of PAF-induced edema ([4]; 10^-8 moles/site): 30%; % Inhibition of PAF-induced edema ([4]; 10^-9 moles/site): -7%; % Inhibition of PAF-induced edema ([4]; 10^-10 moles/site): 2%
